According to ChEMBL document CHEMBL4334438, “Discovery of novel glycogen synthase kinase-3α inhibitors: Structure-based virtual screening, preliminary SAR and biological evaluation for treatment of acute myeloid leukemia” (Eur J Med Chem, 2019):

What was measured:
[1] = target: Mitogen-activated protein kinase 14 (Homo sapiens) (UniProt Q16539); test: Inhibition of recombinant human full length SAPK2a assessed as residual activity at 1 uM using myelin basic protein as substrate measured after 40 mins in presence of [gamma33P]ATP by scintillation counting method relative to control
Chain of Mitogen-activated protein kinase 14 (Homo sapiens) (Q16539 whole entry): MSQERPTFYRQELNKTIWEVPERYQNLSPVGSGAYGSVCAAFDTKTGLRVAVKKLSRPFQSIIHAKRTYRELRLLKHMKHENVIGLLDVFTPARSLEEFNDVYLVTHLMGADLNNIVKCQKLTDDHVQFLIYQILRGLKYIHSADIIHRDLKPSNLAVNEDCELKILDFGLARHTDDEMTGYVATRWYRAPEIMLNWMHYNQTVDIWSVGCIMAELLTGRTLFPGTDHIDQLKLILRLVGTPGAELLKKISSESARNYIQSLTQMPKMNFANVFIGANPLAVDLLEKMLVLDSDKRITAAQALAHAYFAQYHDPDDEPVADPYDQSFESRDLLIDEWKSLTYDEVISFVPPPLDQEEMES

[2] = system: Serine/threonine-protein kinase Nek4 (Homo sapiens), P51957 [P225A]; test: Inhibition of recombinant full-length human NEK4 P225A mutant assessed as residual activity at 1 uM using myelin basic protein as substrate measured after 40 mins in presence of [gamma33P]ATP by scintillation counting method relative to control
Chain of Serine/threonine-protein kinase Nek4 (Homo sapiens), P51957 [P225A] (P51957 whole entry P225A): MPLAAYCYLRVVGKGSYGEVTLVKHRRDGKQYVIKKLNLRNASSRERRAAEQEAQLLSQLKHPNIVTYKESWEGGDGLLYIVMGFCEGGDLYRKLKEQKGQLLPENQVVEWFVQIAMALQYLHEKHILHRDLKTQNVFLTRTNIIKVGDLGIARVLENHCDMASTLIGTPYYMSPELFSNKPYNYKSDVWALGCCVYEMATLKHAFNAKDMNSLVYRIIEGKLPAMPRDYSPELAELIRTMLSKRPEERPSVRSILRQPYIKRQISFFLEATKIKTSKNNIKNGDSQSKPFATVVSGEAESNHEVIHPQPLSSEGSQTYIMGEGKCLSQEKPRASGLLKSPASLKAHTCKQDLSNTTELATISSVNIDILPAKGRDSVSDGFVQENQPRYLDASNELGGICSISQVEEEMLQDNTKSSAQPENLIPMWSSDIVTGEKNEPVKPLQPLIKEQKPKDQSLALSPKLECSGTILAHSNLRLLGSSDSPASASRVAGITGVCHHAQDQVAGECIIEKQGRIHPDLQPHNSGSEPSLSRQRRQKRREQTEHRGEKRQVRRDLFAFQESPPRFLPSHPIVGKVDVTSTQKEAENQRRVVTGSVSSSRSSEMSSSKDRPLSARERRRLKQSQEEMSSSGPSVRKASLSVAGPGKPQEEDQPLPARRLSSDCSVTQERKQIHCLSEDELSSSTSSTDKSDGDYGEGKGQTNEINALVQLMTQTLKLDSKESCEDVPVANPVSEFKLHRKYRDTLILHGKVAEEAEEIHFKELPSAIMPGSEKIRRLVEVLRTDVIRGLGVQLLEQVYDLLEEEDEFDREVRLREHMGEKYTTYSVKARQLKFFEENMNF

[3] = target: Beta-adrenergic receptor kinase 1 (Homo sapiens) (UniProt P25098); test: Inhibition of recombinant full length human GRK2 assessed as residual activity at 1 uM using casein as substrate at 40 mins in presence of [gamma-33ATP] by scintillation counting based radiometry assay relative to control
Chain of Beta-adrenergic receptor kinase 1 (Homo sapiens) (P25098 whole entry): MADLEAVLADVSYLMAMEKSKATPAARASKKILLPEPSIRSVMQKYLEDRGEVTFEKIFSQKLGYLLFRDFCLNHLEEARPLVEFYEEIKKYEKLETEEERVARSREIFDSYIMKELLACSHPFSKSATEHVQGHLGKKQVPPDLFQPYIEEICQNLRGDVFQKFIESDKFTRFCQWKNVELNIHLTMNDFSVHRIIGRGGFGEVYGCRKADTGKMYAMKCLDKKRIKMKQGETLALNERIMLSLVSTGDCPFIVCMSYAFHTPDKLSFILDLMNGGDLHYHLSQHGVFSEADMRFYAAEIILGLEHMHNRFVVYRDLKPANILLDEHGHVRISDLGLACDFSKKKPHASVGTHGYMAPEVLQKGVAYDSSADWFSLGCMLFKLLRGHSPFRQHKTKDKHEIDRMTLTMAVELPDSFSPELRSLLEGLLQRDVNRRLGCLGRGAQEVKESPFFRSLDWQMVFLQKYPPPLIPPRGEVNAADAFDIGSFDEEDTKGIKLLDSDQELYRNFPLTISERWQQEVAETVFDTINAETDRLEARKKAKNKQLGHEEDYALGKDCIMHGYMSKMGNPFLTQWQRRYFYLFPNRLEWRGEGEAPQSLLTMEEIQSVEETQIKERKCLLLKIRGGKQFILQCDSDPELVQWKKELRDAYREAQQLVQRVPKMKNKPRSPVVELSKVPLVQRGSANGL

[4] = target: [Pyruvate dehydrogenase (acetyl-transferring)] kinase isozyme 4, mitochondrial (Homo sapiens) (UniProt Q16654); test: Inhibition of recombinant human full length PDHK4 assessed as residual activity at 1 uM using KKKYHGHSMSDPGVSYRT as substrate measured after 40 mins in presence of [gamma33P]ATP by scintillation counting method relative to control
[5] = target: Myotonin-protein kinase (Homo sapiens) (UniProt Q09013); test: Inhibition of recombinant human DMPK (1 to 549 residues) assessed as residual activity at 1 uM using KKSRGDYMTMQIG as substrate at 40 mins in presence of [gamma-33ATP] by scintillation counting based radiometry assay relative to control
Chain of Myotonin-protein kinase (Homo sapiens) (Q09013 whole entry, the tested form may be a part, canonical isoform): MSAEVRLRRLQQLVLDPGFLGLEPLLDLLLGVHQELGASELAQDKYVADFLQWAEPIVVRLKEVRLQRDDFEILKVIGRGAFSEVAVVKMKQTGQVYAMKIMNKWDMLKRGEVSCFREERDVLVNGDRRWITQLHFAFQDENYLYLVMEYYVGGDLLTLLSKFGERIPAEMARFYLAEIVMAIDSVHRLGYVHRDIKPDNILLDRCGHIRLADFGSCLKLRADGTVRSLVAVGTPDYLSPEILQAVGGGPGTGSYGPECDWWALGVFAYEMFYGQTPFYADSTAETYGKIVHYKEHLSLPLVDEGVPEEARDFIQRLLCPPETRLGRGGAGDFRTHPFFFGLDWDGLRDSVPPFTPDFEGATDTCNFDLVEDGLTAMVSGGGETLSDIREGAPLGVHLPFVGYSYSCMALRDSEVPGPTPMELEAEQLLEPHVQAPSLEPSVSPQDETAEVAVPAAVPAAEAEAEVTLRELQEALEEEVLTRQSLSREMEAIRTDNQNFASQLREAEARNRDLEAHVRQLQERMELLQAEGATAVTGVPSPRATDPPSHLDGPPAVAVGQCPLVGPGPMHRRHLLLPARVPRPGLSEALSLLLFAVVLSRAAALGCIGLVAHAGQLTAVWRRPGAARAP

[6] = target: Casein kinase I isoform gamma-1 (Homo sapiens) (UniProt Q9HCP0); test: Inhibition of recombinant human CK1gamma1 (25 to 355 residues) assessed as residual activity at 1 uM using KRRRALS(p)VASLPGL as substrate measured after 40 mins in presence of [gamma33P]ATP by scintillation counting method
[7] = target: Serine/threonine-protein kinase MRCK alpha (Homo sapiens) (UniProt Q5VT25); test: Inhibition of recombinant human MRCKalpha (1 to 473 residues) assessed as residual activity at 1 uM using KKRNRTLTV as substrate measured after 40 mins in presence of [gamma33P]ATP by scintillation counting method relative to control
[8] = target: SRSF protein kinase 3 (Homo sapiens) (UniProt Q9UPE1); test: Inhibition of recombinant full-length human MSSK1 assessed as residual activity at 1 uM using ERMRPRKRQGSVRRRV as substrate measured after 40 mins in presence of [gamma33P]ATP by scintillation counting method relative to control
[9] = target: Serine/threonine-protein kinase MRCK beta (Homo sapiens) (UniProt Q9Y5S2); test: Inhibition of recombinant human MRCKbeta (1 to 473 residues) assessed as residual activity at 1 uM using KKRNRTLTV as substrate measured after 40 mins in presence of [gamma33P]ATP by scintillation counting method relative to control
[10] = target: Tyrosine-protein kinase HCK (Homo sapiens) (UniProt P08631); test: Inhibition of human HCK (230 to 497 residues) assessed as residual activity at 1 uM using KVEKIGEGTYGVVYK as substrate after 40 mins by [gamma-33ATP] radiometric assay relative to control
Chain of Tyrosine-protein kinase HCK (Homo sapiens) (P08631 2-526 limits assumed): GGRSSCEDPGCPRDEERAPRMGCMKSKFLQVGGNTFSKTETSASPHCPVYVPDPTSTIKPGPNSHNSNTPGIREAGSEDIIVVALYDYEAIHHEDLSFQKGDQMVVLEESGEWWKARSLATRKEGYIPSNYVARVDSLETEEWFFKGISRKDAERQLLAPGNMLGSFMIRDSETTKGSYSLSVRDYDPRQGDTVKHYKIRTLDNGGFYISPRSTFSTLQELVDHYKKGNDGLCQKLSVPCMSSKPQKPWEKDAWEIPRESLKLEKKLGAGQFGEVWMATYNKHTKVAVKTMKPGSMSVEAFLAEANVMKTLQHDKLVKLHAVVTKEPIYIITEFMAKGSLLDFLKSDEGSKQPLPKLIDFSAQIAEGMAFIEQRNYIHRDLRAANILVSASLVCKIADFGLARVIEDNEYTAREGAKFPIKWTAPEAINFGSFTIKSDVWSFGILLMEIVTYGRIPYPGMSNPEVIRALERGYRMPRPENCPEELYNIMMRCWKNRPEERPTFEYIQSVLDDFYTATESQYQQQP

[11] = target: Inhibitor of nuclear factor kappa-B kinase subunit epsilon (Homo sapiens) (UniProt Q14164); test: Inhibition of full length human IKKepsilon assessed as residual activity at 1 uM using casein as substrate after 40 mins by [gamma-33ATP] radiometric assay relative to control
[12] = target: Serine/threonine-protein kinase WNK1 (Homo sapiens) (UniProt Q9H4A3); test: Inhibition of human WNK1 (1 to 491 residues) assessed as residual activity at 1 uM using myelin basic protein as substrate measured after 120 mins in presence of [gamma33P]ATP by scintillation counting method relative to control
[13] = target: Serine/threonine-protein kinase Nek3 (Homo sapiens) (UniProt P51956); test: Inhibition of recombinant full-length human NEK3 assessed as residual activity at 1 uM using myelin basic protein as substrate measured after 40 mins in presence of [gamma33P]ATP by scintillation counting method relative to control
Chain of Serine/threonine-protein kinase Nek3 (Homo sapiens) (P51956 whole entry, the tested form may be a part): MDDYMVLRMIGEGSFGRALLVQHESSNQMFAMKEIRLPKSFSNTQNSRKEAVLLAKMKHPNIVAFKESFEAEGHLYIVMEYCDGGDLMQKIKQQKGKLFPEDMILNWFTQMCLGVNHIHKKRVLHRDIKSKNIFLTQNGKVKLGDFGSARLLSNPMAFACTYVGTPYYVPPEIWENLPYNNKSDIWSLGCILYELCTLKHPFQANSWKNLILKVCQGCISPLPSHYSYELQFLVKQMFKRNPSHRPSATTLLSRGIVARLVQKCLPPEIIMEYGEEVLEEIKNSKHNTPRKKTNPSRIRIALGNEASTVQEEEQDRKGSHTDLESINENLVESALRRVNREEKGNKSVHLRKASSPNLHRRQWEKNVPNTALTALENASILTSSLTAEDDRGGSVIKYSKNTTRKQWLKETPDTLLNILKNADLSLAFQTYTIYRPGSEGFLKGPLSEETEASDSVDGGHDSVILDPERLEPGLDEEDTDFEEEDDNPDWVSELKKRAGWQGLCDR

[14] = target: Calcium/calmodulin-dependent protein kinase type II subunit gamma (Homo sapiens) (UniProt Q13555); test: Inhibition of recombinant human CaMK2gamma (1 to 330 residues) assessed as residual activity at 1 uM […] incubated for 40 mins in presence of [gamma-33ATP] by scintillation counting based radiometry assay relative to control
Chain of Calcium/calmodulin-dependent protein kinase type II subunit gamma (Homo sapiens) (Q13555 whole entry, the tested form may be a part): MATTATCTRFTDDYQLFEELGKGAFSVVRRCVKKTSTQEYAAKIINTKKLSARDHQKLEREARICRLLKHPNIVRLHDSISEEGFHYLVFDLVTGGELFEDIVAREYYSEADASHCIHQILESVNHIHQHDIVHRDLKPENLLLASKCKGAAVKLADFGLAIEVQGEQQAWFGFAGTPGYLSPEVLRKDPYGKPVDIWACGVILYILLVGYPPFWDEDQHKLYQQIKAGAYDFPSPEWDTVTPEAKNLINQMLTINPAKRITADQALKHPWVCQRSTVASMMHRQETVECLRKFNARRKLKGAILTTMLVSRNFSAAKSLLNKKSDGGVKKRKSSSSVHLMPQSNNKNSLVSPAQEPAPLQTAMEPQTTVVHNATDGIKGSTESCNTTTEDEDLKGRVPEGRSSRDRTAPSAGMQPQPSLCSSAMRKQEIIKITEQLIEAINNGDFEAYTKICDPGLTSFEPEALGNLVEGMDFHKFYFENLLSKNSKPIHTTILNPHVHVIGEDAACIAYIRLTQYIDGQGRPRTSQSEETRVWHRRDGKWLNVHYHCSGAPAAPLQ

[15] = target: Serine/threonine-protein kinase haspin (Homo sapiens) (UniProt Q8TF76); test: Inhibition of human Haspin (471 to end residues ) assessed as residual activity at 1 uM using RARTLSFAEPG as substrate after 40 mins by [gamma-33ATP] radiometric assay relative to control
Chain of Serine/threonine-protein kinase haspin (Homo sapiens) (Q8TF76 whole entry): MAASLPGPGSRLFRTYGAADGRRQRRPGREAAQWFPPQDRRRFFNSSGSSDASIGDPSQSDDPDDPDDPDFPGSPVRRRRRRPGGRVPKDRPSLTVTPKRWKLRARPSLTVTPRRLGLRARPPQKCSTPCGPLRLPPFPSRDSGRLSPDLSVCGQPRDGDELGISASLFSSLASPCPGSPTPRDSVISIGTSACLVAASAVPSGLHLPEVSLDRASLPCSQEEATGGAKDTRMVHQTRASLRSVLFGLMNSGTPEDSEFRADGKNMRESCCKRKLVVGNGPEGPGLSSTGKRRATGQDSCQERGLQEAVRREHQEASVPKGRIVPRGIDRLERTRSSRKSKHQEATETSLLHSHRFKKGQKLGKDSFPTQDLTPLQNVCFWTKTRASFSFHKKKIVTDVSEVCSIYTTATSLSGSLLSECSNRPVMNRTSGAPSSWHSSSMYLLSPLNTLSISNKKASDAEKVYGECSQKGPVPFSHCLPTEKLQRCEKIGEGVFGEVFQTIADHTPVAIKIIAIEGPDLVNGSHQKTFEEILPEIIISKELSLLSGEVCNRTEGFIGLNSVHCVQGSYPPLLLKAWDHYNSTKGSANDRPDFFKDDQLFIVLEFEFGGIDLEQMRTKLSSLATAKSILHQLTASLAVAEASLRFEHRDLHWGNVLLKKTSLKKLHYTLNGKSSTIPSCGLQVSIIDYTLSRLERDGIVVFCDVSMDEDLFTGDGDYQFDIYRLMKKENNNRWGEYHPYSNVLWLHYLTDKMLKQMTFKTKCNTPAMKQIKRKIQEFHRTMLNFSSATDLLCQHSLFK

[16] = target: Serine/threonine-protein kinase MAK (Homo sapiens) (UniProt P20794); test: Inhibition of recombinant human MAK assessed as residual activity at 1 uM using RRRFRPASPLRGPPK as substrate after 120 mins in presence of [gamma-33ATP] by scintillation counting based radiometry assay relative to control
[17] = target: G protein-coupled receptor kinase 3 (Homo sapiens) (UniProt P35626); test: Inhibition of recombinant full length human GRK3 assessed as residual activity at 1 uM using casein as substrate at 40 mins in presence of [gamma-33ATP] by scintillation counting based radiometry assay relative to control
[18] = target: Phosphatidylinositol 4-phosphate 5-kinase type-1 alpha (Homo sapiens) (UniProt Q99755); test: Inhibition of recombinant full-length human PIP5K1alpha at 1 uM assessed as residual activity at 1 uM using phosphatidylinositol 4-phosphate as substrate measured after 40 mins by HTRF assay
[19] = system: Platelet-derived growth factor receptor alpha (Homo sapiens), P16234 [D842V]; test: Inhibition of human PDGFRalpha D842V mutant (550 to end residues) assessed as residual activity at 1 uM using GGMEDIYFEFMGGKKK as substrate measured after 40 mins in presence of [gamma33P]ATP by scintillation counting method relative to control
[20] = target: Transient receptor potential cation channel subfamily M member 7 (Homo sapiens) (UniProt Q96QT4); test: Inhibition of recombinant human CHAK1 (1180 to end residues) assessed as residual activity at 1 uM using myelin basic protein as substrate incubated for 40 mins in presence of [gamma-33ATP] by scintillation counting based radiometry assay relative to control
[21] = target: Ephrin type-A receptor 1 (Homo sapiens) (UniProt P21709); test: Inhibition of recombinant human EphA1 (568 to end residues) assessed as residual activity at 1 uM using KKKSPGEYVNIEFG as substrate at 40 mins in presence of [gamma-33ATP] by scintillation counting based radiometry assay relative to control
[22] = target: Epidermal growth factor receptor (Homo sapiens) (UniProt P00533); test: Inhibition of recombinant human EGFR (696 to end residues) assessed as residual activity at 1 uM using poly(Glu, Tyr) 4:1 as substrate at 40 mins in presence of [gamma-33ATP] by scintillation counting based radiometry assay relative to control

| Structure (SMILES) | Activity [1] [%] | Activity [2] [%] | Activity [3] [%] | Activity [4] [%] | Activity [5] [%] | Activity [6] [%] | Activity [7] [%] | Activity [8] [%] | Activity [9] [%] | Activity [10] [%] | Activity [11] [%] | Activity [12] [%] | Activity [13] [%] | Activity [14] [%] | Activity [15] [%] | Activity [16] [%] | Activity [17] [%] | Activity [18] [%] | Activity [19] [%] | Activity [20] [%] | further results |
| --- | --- | --- | --- | --- | --- | --- | --- | --- | --- | --- | --- | --- | --- | --- | --- | --- | --- | --- | --- | --- | --- |
| N=C1NC(=O)/C(=C\c2ccc(-c3cccc([N+](=O)[O-])c3)o2)S1 | 100 | 98 | 98 | 103 | 93 | 101 | 103 | 96 | 94 | 72 | 100 | 97 | 89 | 86 | 59 | 17 | 94 | 102 | 97 | 104 | Activity [21]: 100%; Activity [22]: 91% |
| C=CCOC(=O)c1cc(-c2ccc(/C=C3/NC(=S)NC3=O)o2)ccc1Cl | 101 | 92 | 101 | 100 | 76 | 101 | 98 | 99 | 110 | 73 | 98 | 94 | 94 | 68 | 87 | 37 | 117 | 98 | 100 | 99 | Activity [21]: 104%; Activity [22]: 106% |
